Experimental findings from article PMC5306062, “Pharmacology and toxicology of the novel investigational agent Cantrixil (TRX-E-002-1)” (Cancer Chemotherapy and Pharmacology, 2016) are described below.

Each structure is given as a SMILES string. Bounds are passed on as bounds.

Data set [1] concerns disseminated ovarian cancer model. The data set is described as follows: Disseminated ovarian cancer model, intraperitoneal dosing. It is filed as in vivo, mice. The source says: In vivo, TRX-E-002-1, formulated in 20% SBECD, was active in a disseminated ovarian cancer model and a recurrent ovarian cancer model in which tumour recurrence is investigated following initial treatment of the OCSC2-inoculated mice with paclitaxel. In both models, TRX-E-002-1 inhibited tumour growth following once daily intraperitoneal administration.
The combination of TRX-E-002-1 and cisplatin was investigated in the murine model of disseminated ovarian cancer.

The subject of data set [2] is mouse lymphoma L5178Y cells. The experiment in a line: In vitro mammalian cell mutation assay, thymidine kinase locus. The following applies: 3 h with and without S9, 24 h without S9. On the procedure:
Genotoxicity testing of TRX-E-002-1 was performed in an ICH-compliant test battery (see ICH Guideline S2A), comprising an in vitro bacterial reverse mutation test, an in vitro mammalian cell mutation assay and an in vivo rodent bone marrow micronucleus assay. The assays were performed in compliance with GLP regulations.
The in vitro mammalian cell mutation assay utilised the forward mutation system at the thymidine kinase locus of the mouse lymphoma L5178Y cells using a microtitre cloning technique. TRX-E-002-1 was tested in three experimental conditions: 3-h incubation at 37 °C with and without metabolic activation system (Aroclor-induced rat liver S9 mix), and a 24-h incubation without metabolic activation (i.e. continuous treatment).

The next data set has as its system tumour spheroids. The data set is described as follows: Degradation of tumour spheroids. Type of data set: cell-based, human. The source says:
Tumour recurrence post-chemotherapy is caused by the regrowth of the surviving innately drug-resistant cancer stem cells that remain in tumour niches during and post-chemotherapy. The expansion of this chemo-resistant cancer cell population, coupled with upregulation of pro-survival pathways due to drug pressure, is thought to be responsible for the development of chemo-resistant recurrent disease. Further, the inherent heterogeneity of ovarian tumours consists of epithelial cells with varying potential for stemness, and a population of cancer cells with varying mesenchymal status and invasiveness potential. Therefore, to improve survival, a practical approach is the use of novel therapies that can induce cell death in these various subtypes of ovarian cancer cells. TRX-E-002-1 was assessed against ovarian cancer stem cell line OCSC2, characterised by their expression of stem cell markers including CD44 and […] [22]. A major characteristic of these cells is that they are drug resistant, able to form self-renewing spheroids in non-adherent culture, and recreate disseminated drug-resistant ovarian tumours that have a high degree of heterogeneity similar to the clinical profile observed in patients when inoculated into the peritoneal cavity of an immune-compromised mouse.

In the next data set the target is T1, CYP3A4 (Homo sapiens, UniProt P08684).
T1 construct: investigated in human hepatic microsomes in vitro; from tissue; host or cells: human hepatic microsomes
The data set is described as follows: Metabolism-dependent CYP inhibition in human hepatic microsomes. Type of data set: in vitro ADME. The source says: (§1) The potential for pharmacokinetic drug interactions resulting from inhibition of drug-metabolizing cytochrome P450 enzymes was investigated in human hepatic microsomes in vitro. TRX-E-002-1 inhibited multiple cytochrome P450 drug-metabolizing enzymes, including CYP2C9, CYP2C8, CYP2C19, CYP2B6, CYP3A4, CYP2D6, CYP2A6 and CYP1A2. […] In particular, the potential interaction between Cantrixil and paclitaxel, a CYP2C9 substrate frequently used in the treatment of ovarian cancer, needs to be considered.

The target of the next data set is T2, CYP1A2 (Homo sapiens, UniProt P05177).
T2 construct: investigated in human hepatic microsomes in vitro; from tissue; host or cells: human hepatic microsomes
Described as above. It is filed as in vitro ADME.
Source text: as §1

The next data set has as its target T3, CYP2C8 (Homo sapiens, UniProt P10632).
T3 construct: investigated in human hepatic microsomes in vitro; from tissue; host or cells: human hepatic microsomes
The description is as above. Type of data set: in vitro ADME.
Source text: as §1

Data set [3] deals with ovarian, prostate and lung cancer cells. The experiment in a line: Broad cytotoxic activity. Type of data set: cell-based. Conditions: Homo sapiens, summary over ovarian. The source says: (§2) Activity in pancreatic and colorectal cancer cells and glioblastoma cells was more variable (Table 1).
Data set [4] in a line: Dog GLP 28-day repeat-dose study, intraperitoneal three times per week. It is filed as in vivo, beagle dogs. The procedure: For the dog GLP 28-day repeat-dose study, beagle dogs received intraperitoneal injections of vehicle (3:20 dilution of 20% SBECD in 0.9% saline) or Cantrixil (1, 10 or 30 mg/kg) three times per week for 4 weeks via an implanted catheter. Blood samples were collected from all dogs at 0.25, 0.5, 1, 2, 4 and 24 h after dosing on Days 1 and 26. […] Mean C max and AUClast values were similar in males and females and were greater than proportional to dose. […] Corresponding mean AUClast values on Day 1 were 71.4/80.5, 2810/2260 and 10,500/11,000 ng h/mL, respectively, for males/females.
Treatment-related clinical signs observed in males and females at 10 or 30 mg/kg included emesis, and soft or liquid faeces. […] Food consumption was affected to a lesser extent in females at 30 mg/kg and was not associated with discernible effect on body weight gain.
Similar changes were apparent but less severe in high-dose males and females after the 2-week recovery period. Coagulation parameters, serum chemistry, urinalysis and bone marrow examinations were unremarkable.
Red discoloration in the caecum was also observed in all male dogs and one female dog in the 30 mg/kg group. […] No treatment-related macroscopic abnormalities were observed after the recovery period.
In summary, the main toxicity findings following intraperitoneal administration of TRX-E-002-1 30 mg/kg in SBECD to beagle dogs three times per week for 4 weeks were emesis, soft and/or liquid faeces, leukocytosis with elevated neutrophil and monocyte counts, red discoloration in the caecum and degenerative changes in male reproductive organs. Some of these effects were also observed at the mid-dose of 10 mg/kg, while 1 mg/kg was a clear no-effect dose. […] No differences between sexes were apparent in toxic effects or systemic exposure, and the NOAEL for combined sexes was 10 mg/kg. The 10 mg/kg dose was also considered the highest non-severely toxic dose (HNSTD), and mean plasma AUClast for combined sexes at this dose was 2310 ng h/mL on Day 26.

Data set [5] is described as follows: Second dog pharmacokinetic study, 10 mg/kg intraperitoneal, four dogs. It is filed as in vivo, beagle dogs. The following applies: 10 mg/kg i.p. On the procedure:
In beagle dogs, plasma concentrations of unconjugated TRX-E-002-1 at early time points (1–4 h’ post-dose) were 76–93% of the total levels (parent + glucuronide). At 8 h, the plasma concentrations of the glucuronide metabolites were similar to those of parent drug. By 24 h’ post-dose, the concentrations of TRX-E-002-1-glucuronide in plasma and gastrointestinal tissues (except colon) were 2–12 times higher than those of the parent drug. The increased levels of TRX-E-0021-glucuronide relative to those of parent drug at 24 h post-dose may reflect slower elimination of the glucuronide metabolites.

The next data set deals with A172. The experiment in a line: Cytotoxic activity in human cancer cell lines (72 h growth inhibition). Type of data set: cell-based. Conditions: A 172, Glioblastoma, 72 h incubation, mean ± SEM.
Source text: as §2

The test system of the next data set is Panc-1. Described as above. It is filed as cell-based. The following applies: Pancreatic, 72 h incubation, mean ± SEM.
Source text: as §2

T1 sequence (P08684 whole entry): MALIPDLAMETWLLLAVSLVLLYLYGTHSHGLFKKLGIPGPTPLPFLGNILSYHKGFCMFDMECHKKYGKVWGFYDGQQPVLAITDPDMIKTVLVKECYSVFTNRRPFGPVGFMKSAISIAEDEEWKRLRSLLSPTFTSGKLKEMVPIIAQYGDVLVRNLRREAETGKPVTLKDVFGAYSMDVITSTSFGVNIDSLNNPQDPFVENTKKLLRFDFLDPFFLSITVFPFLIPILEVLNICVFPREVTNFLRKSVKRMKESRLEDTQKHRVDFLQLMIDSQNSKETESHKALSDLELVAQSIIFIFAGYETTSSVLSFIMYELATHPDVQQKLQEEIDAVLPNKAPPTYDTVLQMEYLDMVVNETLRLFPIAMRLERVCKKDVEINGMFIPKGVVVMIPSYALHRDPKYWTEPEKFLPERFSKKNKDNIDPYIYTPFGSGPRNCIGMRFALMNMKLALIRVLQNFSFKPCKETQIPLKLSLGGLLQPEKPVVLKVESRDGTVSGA
T2 sequence (P05177 whole entry): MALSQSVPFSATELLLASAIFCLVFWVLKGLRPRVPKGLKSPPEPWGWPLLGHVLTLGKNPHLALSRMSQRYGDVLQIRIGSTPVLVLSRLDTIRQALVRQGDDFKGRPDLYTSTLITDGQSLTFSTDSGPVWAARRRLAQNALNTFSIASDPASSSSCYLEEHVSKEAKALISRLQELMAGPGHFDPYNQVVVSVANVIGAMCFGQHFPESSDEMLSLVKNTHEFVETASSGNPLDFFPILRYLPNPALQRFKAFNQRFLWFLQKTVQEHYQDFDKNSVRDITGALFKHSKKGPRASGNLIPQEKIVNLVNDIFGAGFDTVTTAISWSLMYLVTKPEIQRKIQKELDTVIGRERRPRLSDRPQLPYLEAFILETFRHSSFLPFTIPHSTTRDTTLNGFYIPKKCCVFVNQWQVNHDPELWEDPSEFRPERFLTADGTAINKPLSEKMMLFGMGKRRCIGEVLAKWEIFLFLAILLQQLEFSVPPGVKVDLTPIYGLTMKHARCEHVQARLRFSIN
T3 sequence (P10632 whole entry): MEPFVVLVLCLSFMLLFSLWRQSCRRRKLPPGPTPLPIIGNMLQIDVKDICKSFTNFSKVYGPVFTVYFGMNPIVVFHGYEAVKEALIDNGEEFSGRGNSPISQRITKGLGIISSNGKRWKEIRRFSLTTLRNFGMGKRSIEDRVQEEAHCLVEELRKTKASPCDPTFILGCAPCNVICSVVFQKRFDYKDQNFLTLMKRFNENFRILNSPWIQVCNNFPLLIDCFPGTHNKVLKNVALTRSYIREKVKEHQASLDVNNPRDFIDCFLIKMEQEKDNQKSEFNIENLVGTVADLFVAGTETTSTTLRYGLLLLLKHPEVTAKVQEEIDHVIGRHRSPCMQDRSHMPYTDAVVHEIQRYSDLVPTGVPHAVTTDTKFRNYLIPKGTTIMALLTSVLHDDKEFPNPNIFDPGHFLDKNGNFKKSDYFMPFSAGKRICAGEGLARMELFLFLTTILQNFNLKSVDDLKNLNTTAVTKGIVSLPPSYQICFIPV

A word on the IC50: it is the point on the concentration scale where inhibition reaches its midpoint. Higher therefore signals weaker potency. Broadly, the NOAEL is the highest dose or exposure tested at which no adverse effect was seen. Take `COc1cc([C@@H]2COc3c(ccc(O)c3C)[C@@H]2c2ccc(O)cc2)cc(OC)c1O` [TRX-E-002-1, (+) cis-4-(para-hydroxyphenyl)-7,4′-dihydroxy-3′,5′-dimethoxy-8-methylisoflavan]: the tumour growth entry in data set [1] (100 mg/kg i.p. once daily in 20% SBECD for 13–14 days) was “significantly inhibited”. The “tumour growth during the 16-day treatment period” value in data set [1] (TRX-E-002-1 100 mg/kg once daily, cisplatin 5 mg/kg once weekly, or both) is recorded as “significantly inhibited”. For the same compound, the “tumour growth during the 5-week post-treatment period” value in data set [1] (after 16-day treatment, TRX-E-002-1 100 mg/kg once daily, cisplatin 5 mg/kg once weekly, or both) is reported as “decreased”. The “mutant frequencies compared with control values” in data set [2] is on record as “did not show statistically significant differences”. Further, in the data set on tumour spheroids, the “effect on tumour spheroids” value was “promoted the degradation”. Further, the metabolism-dependent inhibition result on CYP3A4, at CYP1A2 and on CYP2C8 was “observed” in each case. Moreover, the half-inhibitory concentration (IC50) in [3] is at most 100 nM; with A172 it was 51 ± 2 nM; in the data set with Panc-1, 467 ± 378 nM. Besides, in data set [4] (Day 26 vs Day 1), the “accumulation with three times weekly dosing” value is on record as “no accumulation”. Also, the NOAEL at 4 weeks in data set [4] (both sexes, beagle, dog, in vivo, intraperitoneal, combined sexes) came out at 10 mg/kg; in data set [4] (female, beagle, dog, in vivo, intraperitoneal, females) it was 30 mg/kg; in data set [4] (male, beagle, dog, in vivo, intraperitoneal, males) it was 10 mg/kg. Moreover, the AUC(0-t) in data set [4] (both sexes, beagle, dog, plasma, intraperitoneal, combined sexes, 10 mg/kg, Day 26, read-out: mean plasma AUClast) stood at 2310 ng·h/mL. Besides, the clear no-effect dose in data set [4] (dog, in vivo) was 1 mg/kg. The “highest non-severely toxic dose (HNSTD)” value in data set [4] (dog, in vivo) is reported as 10 mg/kg. The “TRX-E-002-1 levels by 72 h” value in [5] is on record as “close to or below the limit of quantification”. In data set [5] (beagle, dog, gastrointestinal tissues, ip, 24 h after dosing, read-out: concentrations in gastrointestinal tissues relative to plasma), the Kp at 24 h is at least 30.
